# BindingDB's records for doi:10.3109/14756360903508430 (University of Karachi, 2010)
# Legend:
# Cathepsin D = Cathepsin D (Homo sapiens, UniProt P07339); assay: Fluorescence Resonance Energy Transfer (FRET)-Based Assay; conditions: pH 5
# Description: (§1) The assay was performed with plasmepsin-II/cathepsin D (1.2 nM) and substrate (malaria FRET-1; 1.0 μM) in 0.1 M sodium acetate buffer pH 5, containing 10% glycerol and 0.01% Tween 20. The hydrazide and hydrazine compounds dissolved in DMSO were added in the reaction mixture before the addition of substrate. The assays were performed with 5% final concentration of DMSO. The enzyme inhibition experiments were performed (in triplicates) in 96-well plate format and readings were obtained on a Perkin Elmer LS55 fluorescence spectrometer, Waltham, Massachusetts, with an excitation and emission wavelengths of 336 and 490 nm respectively.
# Plasmepsin II = Plasmepsin II (Plasmodium falciparum (isolate HB3), UniProt P46925); assay: as above; conditions: pH 5
# Description: as §1
# Cathepsin D, sequence (P07339 65-162 limits assumed): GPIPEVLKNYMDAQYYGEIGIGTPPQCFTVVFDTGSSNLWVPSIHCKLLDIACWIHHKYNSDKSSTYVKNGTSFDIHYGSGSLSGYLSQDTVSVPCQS
# Cathepsin D, sequence (P07339 169-412 limits assumed): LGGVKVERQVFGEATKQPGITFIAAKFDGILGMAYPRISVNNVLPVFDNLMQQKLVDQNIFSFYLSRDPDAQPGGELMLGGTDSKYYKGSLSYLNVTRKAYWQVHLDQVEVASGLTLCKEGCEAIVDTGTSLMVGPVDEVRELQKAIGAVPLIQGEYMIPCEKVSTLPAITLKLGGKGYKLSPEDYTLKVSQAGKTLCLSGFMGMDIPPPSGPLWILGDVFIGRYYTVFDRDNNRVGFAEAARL
# Plasmepsin II, sequence (P46925 whole entry): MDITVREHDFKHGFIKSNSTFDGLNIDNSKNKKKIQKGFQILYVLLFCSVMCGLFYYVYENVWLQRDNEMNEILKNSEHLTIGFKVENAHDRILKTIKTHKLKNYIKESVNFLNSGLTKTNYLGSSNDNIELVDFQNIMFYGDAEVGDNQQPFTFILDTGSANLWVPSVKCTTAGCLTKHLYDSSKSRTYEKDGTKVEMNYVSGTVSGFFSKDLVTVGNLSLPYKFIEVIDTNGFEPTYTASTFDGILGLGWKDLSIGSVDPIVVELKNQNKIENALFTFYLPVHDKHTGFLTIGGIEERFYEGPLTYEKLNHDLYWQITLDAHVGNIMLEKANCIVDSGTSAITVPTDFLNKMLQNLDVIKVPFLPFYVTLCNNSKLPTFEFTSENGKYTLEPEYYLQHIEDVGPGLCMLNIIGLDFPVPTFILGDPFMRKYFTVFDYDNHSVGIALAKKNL
SMILES,IC50 (Cathepsin D) [nM],IC50 (Plasmepsin II) [nM]
COc1ccccc1C(=O)NN,1500,1650
"c1ccc(NNc2ccccc2)cc1 [1,2-Diphenylhydrazine]",2400,1050
"c1cc(NNc2ccncc2)ccn1 [1,2-Dipyridinylhydrazine]",2500,1450
NNC(=O)c1ccccc1[N+](=O)[O-] [2-Nitrobenzohydrazide],1300,1000
CCCC(=O)NN [Butanohydrazide],1400,1250
